This passage reports inhibition results from patent EP4559908A1, “HETEROARYL DERIVATIVE COMPOUND AND USE THEREOF” (S2CBio Inc., priority 2022, dated 2024).

Each structure is given as a SMILES string.

This assay addresses T1, human ANO6 (variant 5) (Homo sapiens, UniProt Q4KMQ2).
T1 construct: expressed in transfected cells; host or cells: Fischer rat thyroid (FRT) cells
T1 sequence (Q4KMQ2 1-931 isoform Q4KMQ2-2): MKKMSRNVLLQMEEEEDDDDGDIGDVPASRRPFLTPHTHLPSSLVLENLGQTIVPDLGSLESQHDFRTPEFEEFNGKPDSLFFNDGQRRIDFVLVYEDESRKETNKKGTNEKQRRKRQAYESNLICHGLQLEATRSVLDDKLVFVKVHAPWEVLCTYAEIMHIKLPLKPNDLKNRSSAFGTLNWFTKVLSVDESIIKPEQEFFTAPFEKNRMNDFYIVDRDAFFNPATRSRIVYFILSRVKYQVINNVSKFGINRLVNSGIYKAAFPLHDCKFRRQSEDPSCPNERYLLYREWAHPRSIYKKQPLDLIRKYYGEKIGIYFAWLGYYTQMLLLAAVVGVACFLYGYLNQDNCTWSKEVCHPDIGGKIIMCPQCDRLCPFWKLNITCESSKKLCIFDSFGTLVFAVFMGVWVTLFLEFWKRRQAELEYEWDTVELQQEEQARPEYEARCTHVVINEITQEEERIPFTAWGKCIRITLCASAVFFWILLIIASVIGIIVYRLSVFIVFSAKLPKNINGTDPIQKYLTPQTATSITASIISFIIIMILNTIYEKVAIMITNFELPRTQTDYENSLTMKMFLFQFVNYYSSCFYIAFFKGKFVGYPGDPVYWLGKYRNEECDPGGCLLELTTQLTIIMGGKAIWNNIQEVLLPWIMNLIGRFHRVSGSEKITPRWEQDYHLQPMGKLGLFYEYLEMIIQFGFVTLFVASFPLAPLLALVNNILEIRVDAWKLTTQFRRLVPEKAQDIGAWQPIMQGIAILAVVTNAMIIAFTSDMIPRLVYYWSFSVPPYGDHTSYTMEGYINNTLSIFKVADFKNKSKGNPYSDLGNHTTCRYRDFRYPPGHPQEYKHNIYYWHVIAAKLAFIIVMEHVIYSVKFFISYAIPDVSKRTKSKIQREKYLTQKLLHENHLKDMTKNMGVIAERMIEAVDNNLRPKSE
Put plainly: Lact C2 assay (measuring phosphatidylserine externalization scramblase function). The class given is cell-based. The conditions noted are these: FRT, FRT cells expressing human ANO6 (variant 5), ionomycin 10 µM, Lact-C2-GFP fluorescence, average of three tests; for inhibition at 0.05 µM: compound 50 nM, read-out: % Inhibition 50 nM; for inhibition at 1 µM: compound 1 µM, read-out: % Inhibition 1 µM; for inhibition at 0.1 µM: compound 100 nM. In short, it runs like this:
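Cells were pretreated 10 min with compound (50 nM, 100 nM, 1 µM; 1% DMSO), then given 10 µM ionomycin for 10 min. Surface phosphatidylserine was stained with 500 nM Lact-C2-GFP (10 min, 37 °C), fixed and imaged. Inhibition was scaled between untreated (100%) and ionomycin-alone (0%) wells.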

With `Fc1ccc(-c2ccc(Nc3cccc(-c4nc5ccc(C(F)(F)F)cc5[nH]4)c3)cc2)nc1` [Example 253, N-(4-(5-fluoropyridin-2-yl)phenyl)-3-(6-(trifluoromethyl)-1H-benzo[d]imidazol-2-yl)aniline], the inhibition at 0.05 µM is more than 60% and the inhibition at 1 µM is more than 60%. Turning to `FC(F)(F)c1cc2[nH]c(-c3cccc(Nc4ccc(-c5cccnn5)cc4)c3)nc2cn1` [Example 79, N-(4-(pyridazin-3-yl)phenyl)-3-(6-(trifluoromethyl)-1H-imidazolo[4,5-c]pyridin-2-yl)aniline], the inhibition at 0.05 µM was more than 60%. In the case of `FC(F)(F)Oc1ccc2nc(-c3cccc(Nc4ccc(-c5ccncn5)cc4)c3)[nH]c2c1` [Example 109, N-(4-pyrimidin-4-ylphenyl)-3-[6-(trifluoromethoxy)-1H-benzo[d]imidazol-2-yl]aniline], the inhibition at 0.05 µM is more than 60% and the inhibition at 1 µM was more than 60%.

Take `Fc1cc2[nH]c(-c3cccc(Nc4ncc(-c5ccccn5)cn4)c3)nc2cn1` [Example 286, N-(3-(6-fluoro-1H-imidazo[4,5-c]pyridin-2-yl)phenyl)-5-(pyridin-2-yl)pyrimidin-2-amine]: the inhibition at 1 µM is more than 60%. Take `Fc1cc(Nc2cccc(-c3nc4ccccc4[nH]3)c2)ccc1-c1cccnn1` [Example 270, N-(3-(1H-benzo[d]imidazol-2-yl)phenyl)-3-fluoro-4-(pyridazin-3-yl)aniline]: the inhibition at 0.05 µM is more than 60%.

Take `FC(F)(F)Oc1cc2nc(-c3cccc(Nc4ccc(-c5ccccc5)nn4)c3)[nH]c2cc1Cl` [Example 10, N-{3-[6-chloro-5-(trifluoromethoxy)-1H-benzo[d]imidazol-2-yl]phenyl}-6-phenylpyridazin-3-amine]: the inhibition at 0.05 µM was more than 60%, the inhibition at 0.1 µM was more than 60% and the inhibition at 1 µM was more than 60%. As to `Clc1cc2nc(-c3cccc(Nc4ccc(-c5cccnn5)cc4)c3)[nH]c2cc1Cl` [Example 225, 3-(5,6-dichloro-1H-benzo[d]imidazol-2-yl)-N-(4-(pyridazin-3-yl)phenyl)aniline], the inhibition at 0.05 µM was more than 60%. For the molecule `COc1cc(-c2cccnn2)ccc1Nc1cccc(-c2nc3ccccc3[nH]2)c1` [Example 210, N-(3-(1H-benzo[d]imidazol-2-yl)phenyl)-2-methoxy-4-(pyridazin-3-yl)aniline], the inhibition at 1 µM fell in the range of 30 to 60%. As to `COc1cc(Nc2cccc(-c3nc4ccccc4[nH]3)c2)ccc1-c1cccnn1` [Example 208, N-(3-(1H-benzo[d]imidazol-2-yl)phenyl)-3-methoxy-4-(pyridazin-3-yl)aniline], the inhibition at 1 µM is more than 60%. Regarding `FC(F)(F)c1cc2nc(-c3cccc(Nc4ncc(-c5cccnn5)cn4)c3)[nH]c2cc1Cl` [Example 294, N-(3-(6-chloro-5-(trifluoromethyl)-1H-benzo[d]imidazol-2-yl)phenyl)-5-(pyridazin-3-yl)pyrimidin-2-amine], the inhibition at 0.05 µM was in the range of 30 to 60% and the inhibition at 1 µM is more than 60%. `CN(C)CCOc1ccc(-c2nc3ccc(C(F)(F)F)cc3[nH]2)cc1Nc1ccc(-c2cnccn2)cc1` [Example 174, 2-[2-(dimethylamino)ethoxy]-N-(4-pyrazin-2-ylphenyl)-5-[6-(trifluoromethyl)-1H-benzo[d]imidazol-2-yl]aniline]: the inhibition at 1 µM lay within 30 to 60%. `Fc1cccc(-c2ccc(Nc3cccc(-c4nc5ccc(C(F)(F)F)cc5[nH]4)c3)cc2)n1` [Example 252, N-(4-(6-fluoropyridin-2-yl)phenyl)-3-(6-(trifluoromethyl)-1H-benzo[d]imidazol-2-yl)aniline]: the inhibition at 0.05 µM is more than 60% and the inhibition at 1 µM was more than 60%. For `c1cc(Nc2ccc(-c3cncnc3)cc2)cc(-c2nc3ccccc3[nH]2)c1` [Example 30, 3-(1H-benzo[d]imidazol-2-yl)-N-(4-(pyrimidin-5-yl)phenyl)aniline], the inhibition at 0.05 µM was in the range of 30 to 60% and the inhibition at 0.1 µM is 30 to 60%. As to `Fc1ccc2nc(-c3cccc(Nc4ccc(-c5ccncn5)cc4)c3)[nH]c2c1` [Example 96, 3-(6-fluoro-1H-benzo[d]imidazol-2-yl)-N-(4-pyrimidin-4-ylphenyl)aniline], the inhibition at 0.05 µM was more than 60% and the inhibition at 1 µM is more than 60%. For `c1ccc(CNc2ccc3nc(-c4cccc(Nc5ccc(-c6cccnn6)cc5)c4)[nH]c3c2)cc1` [Example 229, N-benzyl-2-(3-((4-(pyridazin-3-yl)phenyl)amino)phenyl)-1H-benzo[d]imidazol-6-amine], the inhibition at 1 µM is more than 60%. For the molecule `FC(F)(F)c1ccc2nc(-c3ccnc(Nc4ccc(-c5cccnn5)cc4)c3)[nH]c2c1` [Example 261, N-(4-(pyridazin-3-yl)phenyl)-4-(6-(trifluoromethyl)-1H-benzo[d]imidazol-2-yl) pyridin-2-amine], the inhibition at 0.05 µM fell in the range of 30 to 60% and the inhibition at 1 µM is more than 60%.

Take `c1ccc(-c2ccc(Nc3cccc(-c4nc5ccccc5[nH]4)c3)nc2)nc1` [Example 59, N-[3-(1H-benzo[d]imidazol-2-yl)phenyl]-[2,3'-bipyridin]-6'-amine]: the inhibition at 0.05 µM is more than 60% and the inhibition at 0.1 µM was more than 60%. As to `Cc1cc(Nc2cccc(-c3nc4ccccc4[nH]3)c2)ccc1-c1cccnn1` [Example 204, N-(3-(1H-benzo[d]imidazol-2-yl)phenyl)-3-methyl-4-(pyridazin-3-yl)aniline], the inhibition at 1 µM was more than 60%.

For `FC(F)(F)Oc1ccc2nc(-c3cccc(Nc4ncc(-c5cccnn5)cn4)c3)[nH]c2c1` [Example 295, 5-(pyridazin-3-yl)-N-(3-(6-(trifluoromethoxy)-1H-benzo[d]imidazol-2-yl)phenyl)pyrimidin-2-amine], the inhibition at 0.05 µM is 30 to 60% and the inhibition at 1 µM is more than 60%. For the molecule `Fc1cc(-c2cccnn2)ccc1Nc1cccc(-c2nc3ccccc3[nH]2)c1` [Example 269, N-(3-(1H-benzo[d]imidazol-2-yl)phenyl)-2-fluoro-4-(pyridazin-3-yl)aniline], the inhibition at 0.05 µM lay within 30 to 60% and the inhibition at 1 µM is more than 60%. Take `FC(F)(F)c1cccc2nc(-c3cccc(Nc4ncc(-c5cccnn5)cn4)c3)[nH]c12` [Example 289, 5-(pyridazin-3-yl)-N-(3-(7-(trifluoromethyl)-1H-benzo[d]imidazol-2-yl)phenyl)pyrimidin-2-amine]: the inhibition at 1 µM was 30 to 60%. Turning to `Clc1cc2[nH]c(-c3cccc(Nc4ncc(-c5ccccn5)cn4)c3)nc2cn1` [Example 64, N-(3-(6-chloro-1H-imidazolo[4,5-c]pyridin-2-yl)phenyl)-5-(pyridin-2-yl)pyrimidin-2-amine], the inhibition at 0.05 µM is 30 to 60% and the inhibition at 0.1 µM was in the range of 30 to 60%. Turning to `FC(F)(F)c1ccc2[nH]c(-c3cccc(Nc4ncc(-c5ccccn5)cn4)c3)nc2n1` [Example 244, 5-(pyridin-2-yl)-N-(3-(5-(trifluoromethyl)-1H-imidazo[4,5-b]pyridin-2-yl)phenyl)pyrimidin-2-amine], the inhibition at 0.05 µM is 30 to 60% and the inhibition at 1 µM was more than 60%. With `Fc1cc2nc(-c3cccc(Nc4ccc(-c5ccccc5)nn4)c3)[nH]c2cc1Br` [Example 4, N-[3-(6-bromo-5-fluoro-1H-benzo[d]imidazol-2-yl)phenyl]-6-phenylpyridazin-3-amine], the inhibition at 0.05 µM lay in the range of 30 to 60%, the inhibition at 0.1 µM was more than 60% and the inhibition at 1 µM was more than 60%.
